Read-outs that look alike come from different tables or passages of the source.
Columns and labels:
[1] = system: Escherichia coli K-12 MG1655; assay: Growth of K-12 MG1655 in varying concentrations of fumaric, itaconic, malic and succinic acid, Growth Profiler; format: cell-based
Summary of the method: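 Escherichia coli K-12 MG1655 cultures were grown in M9 medium with 1% glucose and challenged with the dicarboxylic acids, supplied as neutral sodium salts or as free acids neutralized to pH 7.0 with sodium hydroxide. Plates were shaken at 225 rpm and 37° C. in a Growth Profiler, scanned every 15 minutes, and green pixel values were converted to OD600 by calibration.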

[2] = system: Escherichia coli K-12 MG1655 and evolved isolates; format: cell-based; details: 50 g/L succinic acid
Summary of the method: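 Wild-type MG1655 and evolved isolates, precultured overnight in M9 + 1% glucose at 37 °C, were diluted into M9 + 1% glucose. Growth at 37 °C, 225 rpm, scanned every 15 min; pixel values calibrated to OD600. Diacids tested as sodium salts or neutralized to pH 7.0.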

O=C(O)CCC(=O)O [succinic acid]
μ (mean) ([1]; growth rate of K-12 MG1655, 10 g/L diacid (sodium salt)): 0.665 h^1 | μ (mean) ([1]; growth rate of K-12 MG1655, 20 g/L diacid (sodium salt)): 0.610 h^1 | μ (mean) ([1]; growth rate of K-12 MG1655, 30 g/L diacid (sodium salt)): 0.496 h^1 | μ (mean) ([1]; growth rate of K-12 MG1655, 40 g/L diacid (sodium salt)): 0.345 h^1 | μ (mean) ([1]; growth rate of K-12 MG1655, 50 g/L diacid (sodium salt)): 0.179 h^1 | μ (mean) ([1]; growth rate of K-12 MG1655, 60 g/L diacid (sodium salt)): 0.127 h^1 | tlag (mean) ([1]; lag time of K-12 MG1655, 10 g/L diacid (sodium salt)): 5.4 h | tlag (mean) ([1]; lag time of K-12 MG1655, 20 g/L diacid (sodium salt)): 6.7 h | tlag (mean) ([1]; lag time of K-12 MG1655, 30 g/L diacid (sodium salt)): 8.9 h | tlag (mean) ([1]; lag time of K-12 MG1655, 40 g/L diacid (sodium salt)): 13.4 h | tlag (mean) ([1]; lag time of K-12 MG1655, 50 g/L diacid (sodium salt)): 22.4 h | tlag (mean) ([1]; lag time of K-12 MG1655, 60 g/L diacid (sodium salt)): 42.5 h | growth rate μ (mean) ([2]; strain ADIP1-1): 0.299 h⁻¹ | lag time tlag (mean) ([2]; strain ADIP1-1): 16.1 h | growth rate μ (mean) ([2]; strain ADIP1-9): 0.290 h⁻¹ | lag time tlag (mean) ([2]; strain ADIP1-9): 14.5 h | growth rate μ (mean) ([2]; strain ADIP2-5): 0.260 h⁻¹ | lag time tlag (mean) ([2]; strain ADIP2-5): 25.5 h | growth rate μ (mean) ([2]; strain ADIP2-6): 0.278 h⁻¹ | lag time tlag (mean) ([2]; strain ADIP2-6): 21.7 h | growth rate μ (mean) ([2]; strain ADIP2-10): 0.262 h⁻¹ | lag time tlag (mean) ([2]; strain ADIP2-10): 22.0 h | growth rate μ (mean) ([2]; strain ADIP3-2): 0.311 h⁻¹ | lag time tlag (mean) ([2]; strain ADIP3-2): 13.2 h | growth rate μ (mean) ([2]; strain ADIP3-4): 0.308 h⁻¹ | lag time tlag (mean) ([2]; strain ADIP3-4): 12.7 h | growth rate μ (mean) ([2]; strain ADIP3-8): 0.304 h⁻¹ | lag time tlag (mean) ([2]; strain ADIP3-8): 13.8 h | growth rate μ (mean) ([2]; strain ADIP4-1): 0.206 h⁻¹ | lag time tlag (mean) ([2]; strain ADIP4-1): 15.7 h | growth rate μ (mean) ([2]; strain ADIP4-8): 0.228 h⁻¹ | lag time tlag (mean) ([2]; strain ADIP4-8): 15.8 h | growth rate μ (mean) ([2]; strain ADIP5-2): 0.192 h⁻¹ | lag time tlag (mean) ([2]; strain ADIP5-2): 13.5 h | growth rate μ (mean) ([2]; strain ADIP5-6): 0.361 h⁻¹ | lag time tlag (mean) ([2]; strain ADIP5-6): 12.1 h | growth rate μ (mean) ([2]; strain ADIP6-3): 0.246 h⁻¹ | lag time tlag (mean) ([2]; strain ADIP6-3): 14.9 h | growth rate μ (mean) ([2]; strain ADIP6-9): 0.210 h⁻¹ | lag time tlag (mean) ([2]; strain ADIP6-9): 18.4 h | growth rate μ (mean) ([2]; strain ADIP6-10): 0.285 h⁻¹ | lag time tlag (mean) ([2]; strain ADIP6-10): 12.4 h | growth rate μ (mean) ([2]; strain ADIP7-2): 0.294 h⁻¹ | lag time tlag (mean) ([2]; strain ADIP7-2): 12.5 h | growth rate μ (mean) ([2]; strain ADIP7-5): 0.274 h⁻¹ | lag time tlag (mean) ([2]; strain ADIP7-5): 12.4 h | growth rate μ (mean) ([2]; strain ADIP8-3): 0.146 h⁻¹ | lag time tlag (mean) ([2]; strain ADIP8-3): 22.1 h | growth rate μ (mean) ([2]; strain ADIP8-7): 0.163 h⁻¹ | lag time tlag (mean) ([2]; strain ADIP8-7): 23.2 h | growth rate μ (mean) ([2]; strain ADIP8-10): 0.131 h⁻¹ | lag time tlag (mean) ([2]; strain ADIP8-10): 20.0 h | growth rate μ (mean) ([2]; strain GLUT1-3): 0.231 h⁻¹ | lag time tlag (mean) ([2]; strain GLUT1-3): 14.5 h | growth rate μ (mean) ([2]; strain GLUT1-9): 0.194 h⁻¹ | lag time tlag (mean) ([2]; strain GLUT1-9): 20.8 h | growth rate μ (mean) ([2]; strain GLUT1-10): 0.246 h⁻¹ | lag time tlag (mean) ([2]; strain GLUT1-10): 20.0 h | growth rate μ (mean) ([2]; strain GLUT2-1): 0.232 h⁻¹ | lag time tlag (mean) ([2]; strain GLUT2-1): 14.7 h | growth rate μ (mean) ([2]; strain GLUT2-9): 0.213 h⁻¹ | lag time tlag (mean) ([2]; strain GLUT2-9): 14.4 h | growth rate μ (mean) ([2]; strain GLUT2-10): 0.277 h⁻¹ | lag time tlag (mean) ([2]; strain GLUT2-10): 13.4 h | growth rate μ (mean) ([2]; strain GLUT3-5): 0.242 h⁻¹ | lag time tlag (mean) ([2]; strain GLUT3-5): 16.1 h | growth rate μ (mean) ([2]; strain GLUT3-7): 0.235 h⁻¹ | lag time tlag (mean) ([2]; strain GLUT3-7): 15.3 h | growth rate μ (mean) ([2]; strain GLUT3-9): 0.221 h⁻¹ | lag time tlag (mean) ([2]; strain GLUT3-9): 20.6 h | growth rate μ (mean) ([2]; strain GLUT4-1): 0.263 h⁻¹ | lag time tlag (mean) ([2]; strain GLUT4-1): 16.3 h | growth rate μ (mean) ([2]; strain GLUT4-4): 0.242 h⁻¹ | lag time tlag (mean) ([2]; strain GLUT4-4): 16.6 h | growth rate μ (mean) ([2]; strain GLUT4-10): 0.231 h⁻¹ | lag time tlag (mean) ([2]; strain GLUT4-10): 15.7 h | growth rate μ (mean) ([2]; strain GLUT5-4): 0.281 h⁻¹ | lag time tlag (mean) ([2]; strain GLUT5-4): 17.0 h | growth rate μ (mean) ([2]; strain GLUT5-5): 0.264 h⁻¹ | lag time tlag (mean) ([2]; strain GLUT5-5): 18.4 h | growth rate μ (mean) ([2]; strain GLUT5-9): 0.244 h⁻¹ | lag time tlag (mean) ([2]; strain GLUT5-9): 18.4 h | growth rate μ (mean) ([2]; strain GLUT6-4): 0.241 h⁻¹ | lag time tlag (mean) ([2]; strain GLUT6-4): 14.2 h | growth rate μ (mean) ([2]; strain GLUT6-5): 0.243 h⁻¹ | lag time tlag (mean) ([2]; strain GLUT6-5): 13.9 h | growth rate μ (mean) ([2]; strain GLUT6-10): 0.211 h⁻¹ | lag time tlag (mean) ([2]; strain GLUT6-10): 14.4 h | growth rate μ (mean) ([2]; strain GLUT7-2): 0.223 h⁻¹ | lag time tlag (mean) ([2]; strain GLUT7-2): 14.9 h | growth rate μ (mean) ([2]; strain GLUT7-6): 0.195 h⁻¹ | lag time tlag (mean) ([2]; strain GLUT7-6): 17.8 h | growth rate μ (mean) ([2]; strain GLUT7-7): 0.156 h⁻¹ | lag time tlag (mean) ([2]; strain GLUT7-7): 19.9 h | growth rate μ (mean) ([2]; strain GLUT8-5): 0.198 h⁻¹ | lag time tlag (mean) ([2]; strain GLUT8-5): 16.4 h | growth rate μ (mean) ([2]; strain GLUT8-6): 0.236 h⁻¹ | lag time tlag (mean) ([2]; strain GLUT8-6): 34.1 h | growth rate μ (mean) ([2]; strain GLUT8-9): 0.250 h⁻¹ | lag time tlag (mean) ([2]; strain GLUT8-9): 38.0 h | growth rate μ (mean) ([2]; strain MG1655 (Table 28)): 0.169 h⁻¹ | lag time tlag (mean) ([2]; strain MG1655 (Table 28)): 20.2 h | growth rate μ (mean) ([2]; strain MG1655 (Table 29)): 0.143 h⁻¹ | lag time tlag (mean) ([2]; strain MG1655 (Table 29)): 23.8 h

From US20230139445A1, “BACTERIAL CELLS WITH IMPROVED TOLERANCE TO DIACIDS” (priority 2016, published 2023)
